Results as given in patent US10314823B2, “Substituted 1,2-dihydro-3H-pyrrolo[1,2-c]imidazol-3-one antibacterial compounds” (IDORSIA PHARMACEUTICALS LTD, priority 2015, dated 2019).
Values after ≈ are worked out from the molar mass of the structure shown.

Tests used:
Assay in all cases: Bacterial growth minimal inhibitory concentration (CLSI broth microdilution)
Format in all cases: cell-based
P. aeruginosa ATCC27853 = conditions: Pseudomonas aeruginosa, ATCC27853; quinolone-sensitive strain; cation-adjusted Mueller-Hinton Broth
In short: (§1)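 Compounds were serially diluted in cation-adjusted Mueller-Hinton broth, then inoculated with the test strain following the CLSI M7-A7 microdilution standard. The lowest inhibitory concentration is reported as MIC in mg/L.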

E. coli ATCC25922 = conditions: Escherichia coli, ATCC25922; quinolone-sensitive strain; cation-adjusted Mueller-Hinton Broth
In short: as §1

K. pneumoniae A-651 = conditions: Klebsiella pneumoniae, A651; multiply resistant strain (in particular quinolone-resistant); cation-adjusted Mueller-Hinton Broth
In short: as §1

Row | SMILES | MIC (P. aeruginosa ATCC27853) [µg/mL] | MIC (E. coli ATCC25922) [µg/mL] | MIC (K. pneumoniae A-651) [µg/mL]
1 | C[C@@](CCN1Cc2cc(C#Cc3ccc([C@H](O)CN4CCOCC4)cc3)cn2C1=O)(C(=O)NO)S(C)(=O)=O (single isomer, unassigned) [Example 2] | 1 (≈ 1.84 µM) | 1 (≈ 1.84 µM) | 1 (≈ 1.84 µM)
2 | C[C@@](CCN1Cc2cc(C#Cc3ccc(CNC(=O)OC4CNC4)cc3)cn2C1=O)(C(=O)NO)S(C)(=O)=O [Example 26, azetidin-3-yl (3R)-(4-((2-(4-(hydroxyamino)-3-methyl-3-(methylsulfonyl)-4-oxobutyl)-3-oxo-2,3-dihydro-1H-pyrrolo[1,2-c]imidazol-6-yl)ethynyl)benzyl)carbamate] | 4 (≈ 7.36 µM) | 8 (≈ 14.7 µM) | 8 (≈ 14.7 µM)
3 | CN1CCC(C#CC#Cc2cc3n(c2)C(=O)N(CC[C@](C)(C(=O)NO)S(C)(=O)=O)C3)C1 (mixture of isomers) [Example 83, (2R)—N-hydroxy-2-methyl-4-(6-(((3RS)-1-methylpyrrolidin-3-yl)buta-1,3-diyn-1-yl)-3-oxo-1H-pyrrolo[1,2-c]imidazol-2(3H)-yl)-2-(methylsulfonyl)butanamide] | 1 | 2 | 1
4 | C[C@@](CCN1Cc2cc(C#CC#CC3CN(CC(F)F)C3)cn2C1=O)(C(=O)NO)S(C)(=O)=O [Example 68, (2R)-4-(6-((1-(2,2-difluoroethyl)azetidin-3-yl)buta-1,3-diyn-1-yl)-3-oxo-1H-pyrrolo[1,2-c]imidazol-2(3H)-yl)-N-hydroxy-2-methyl-2-(methylsulfonyl)butanamide] | 1 (≈ 2.07 µM) | 0.063 (≈ 0.131 µM) | 0.25 (≈ 0.518 µM)
5 | CN(C)C[C@@H]1C[C@H]1C#CC#Cc1cc2n(c1)C(=O)N(CC[C@](C)(C(=O)NO)S(C)(=O)=O)C2 [Example 44, (2R)-4-(6-(((1R,2R)-2-((dimethylamino)methyl)cyclopropyl)buta-1,3-diyn-1-yl)-3-oxo-1H-pyrrolo[1,2-c]imidazol-2(3H)-yl)-N-hydroxy-2-methyl-2-(methylsulfonyl)butanamide] | 4 (≈ 8.69 µM) | 2 (≈ 4.34 µM) | 2 (≈ 4.34 µM)
6 | C[C@@](CCN1Cc2cc(C#CC#CC3CN(CCO)C3)cn2C1=O)(C(=O)NO)S(C)(=O)=O [Example 41, (2R)—N-hydroxy-4-(6-((1-(2-hydroxyethyl)azetidin-3-yl)buta-1,3-diyn-1-yl)-3-oxo-1H-pyrrolo[1,2-c]imidazol-2(3H)-yl)-2-methyl-2-(methylsulfonyl)butanamide] | 0.5 (≈ 1.08 µM) | 0.5 (≈ 1.08 µM) | 0.5 (≈ 1.08 µM)
7 | CCC1(C#CC#Cc2cc3n(c2)C(=O)N(CC[C@](C)(C(=O)NO)S(C)(=O)=O)C3)CN(C)C1 [Example 79, (2R)-4-(6-((3-ethyl-1-methylazetidin-3-yl)buta-1,3-diyn-1-yl)-3-oxo-1H-pyrrolo[1,2-c]imidazol-2(3H)-yl)-N-hydroxy-2-methyl-2-(methylsulfonyl)butanamide] | 4 (≈ 8.69 µM) | 2 (≈ 4.34 µM) | 2 (≈ 4.34 µM)
8 | C[C@@](CCN1Cc2cc(C#Cc3ccc(CN4CC[C@H](O)[C@@H](F)C4)cc3)cn2C1=O)(C(=O)NO)S(C)(=O)=O (relative stereo) [Example 36, (2R)-4-(6-((4-(((3S*,4S*)-3-fluoro-4-hydroxypiperidin-1-yl)methyl)phenyl)ethynyl)-3-oxo-1H-pyrrolo[1,2-c]imidazol-2(3H)-yl)-N-hydroxy-2-methyl-2-(methylsulfonyl)butanamide] | 1 (≈ 1.83 µM) | 0.25 (≈ 0.457 µM) | 0.5 (≈ 0.915 µM)
9 | CN(C)C1(C#CC#Cc2cc3n(c2)C(=O)N(CC[C@](C)(C(=O)NO)S(C)(=O)=O)C3)CC1 [Example 21, (2R)-4-(6-((1-(dimethylamino)cyclopropyl)buta-1,3-diyn-1-yl)-3-oxo-1H-pyrrolo[1,2-c]imidazol-2(3H)-yl)-N-hydroxy-2-methyl-2-(methylsulfonyl)butanamide] | 0.5 (≈ 1.12 µM) | 0.5 (≈ 1.12 µM) | 0.5 (≈ 1.12 µM)
10 | C[C@@](CCN1Cc2cc(C#CC#C[C@H]3C[C@H](CO)N(C4COC4)C3)cn2C1=O)(C(=O)NO)S(C)(=O)=O [Example 100, (2R)—N-hydroxy-4-(6-(((3R,5R)-5-(hydroxymethyl)-1-(oxetan-3-yl)pyrrolidin-3-yl)buta-1,3-diyn-1-yl)-3-oxo-1H-pyrrolo[1,2-c]imidazol-2(3H)-yl)-2-methyl-2-(methylsulfonyl)butanamide] | 4 (≈ 7.71 µM) | 4 (≈ 7.71 µM) | 4 (≈ 7.71 µM)
11 | C[C@@](CCN1Cc2cc(C#CC#CC3(F)CN(C4COC4)C3)cn2C1=O)(C(=O)NO)S(C)(=O)=O [Example 19, (2R)-4-(6-((3-fluoro-1-(oxetan-3-yl)azetidin-3-yl)buta-1,3-diyn-1-yl)-3-oxo-1H-pyrrolo[1,2-c]imidazol-2(3H)-yl)-N-hydroxy-2-methyl-2-(methylsulfonyl)butanamide] | 2 (≈ 4.06 µM) | 0.25 (≈ 0.508 µM) | 1 (≈ 2.03 µM)
12 | C[C@@](CCN1Cc2cc(C#CC#CC3CN(C4CCCC4)C3)cn2C1=O)(C(=O)NO)S(C)(=O)=O [Example 73, (2R)-4-(6-((1-cyclopentylazetidin-3-yl)buta-1,3-diyn-1-yl)-3-oxo-1H-pyrrolo[1,2-c]imidazol-2(3H)-yl)-N-hydroxy-2-methyl-2-(methylsulfonyl)butanamide] | 1 (≈ 2.06 µM) | 0.5 (≈ 1.03 µM) | 0.25 (≈ 0.514 µM)
13 | C[C@@](CCN1Cc2cc(C#CC#CC3(F)CN(CCO)C3)cn2C1=O)(C(=O)NO)S(C)(=O)=O [Example 66, (2R)-4-(6-((3-fluoro-1-(2-hydroxyethyl)azetidin-3-yl)buta-1,3-diyn-1-yl)-3-oxo-1H-pyrrolo[1,2-c]imidazol-2(3H)-yl)-N-hydroxy-2-methyl-2-(methylsulfonyl)butanamide] | 2 (≈ 4.16 µM) | 0.5 (≈ 1.04 µM) | 1 (≈ 2.08 µM)
14 | CN1C[C@H](C#CC#Cc2cc3n(c2)C(=O)N(CC[C@](C)(C(=O)NO)S(C)(=O)=O)C3)[C@H]1CO [Example 97, (2R)—N-hydroxy-4-(6-(((2S,3S)-2-(hydroxymethyl)-1-methylazetidin-3-yl)buta-1,3-diyn-1-yl)-3-oxo-1H-pyrrolo[1,2-c]imidazol-2(3H)-yl)-2-methyl-2-(methylsulfonyl)butanamide] | 0.5 (≈ 1.08 µM) | 0.5 (≈ 1.08 µM) | 1 (≈ 2.16 µM)

The next lines start with the values.

Row | MIC (P. aeruginosa ATCC27853) [µg/mL] | MIC (E. coli ATCC25922) [µg/mL] | MIC (K. pneumoniae A-651) [µg/mL] | SMILES
15 | 1 (≈ 2.17 µM) | 4 (≈ 8.69 µM) | 4 (≈ 8.69 µM) | CN1CCC(C#CC#Cc2cc3n(c2)C(=O)N(CC[C@](C)(C(=O)NO)S(C)(=O)=O)C3)CC1 [Example 34, (2R)—N-hydroxy-2-methyl-4-(6-((1-methylpiperidin-4-yl)buta-1,3-diyn-1-yl)-3-oxo-1H-pyrrolo[1,2-c]imidazol-2(3H)-yl)-2-(methylsulfonyl)butanamide]
16 | 0.5 (≈ 1.05 µM) | 0.25 (≈ 0.525 µM) | 1 (≈ 2.1 µM) | C[C@@](CCN1Cc2cc(C#CC#CC3CN(CCCO)C3)cn2C1=O)(C(=O)NO)S(C)(=O)=O [Example 64, (2R)—N-hydroxy-4-(6-((1-(3-hydroxypropyl)azetidin-3-yl)buta-1,3-diyn-1-yl)-3-oxo-1H-pyrrolo[1,2-c]imidazol-2(3H)-yl)-2-methyl-2-(methylsulfonyl)butanamide]
17 | 1 (≈ 1.97 µM) | 2 (≈ 3.95 µM) | 2 (≈ 3.95 µM) | C[C@@](CCN1Cc2cc(C#CC#CC3CN(CC(CO)CO)C3)cn2C1=O)(C(=O)NO)S(C)(=O)=O [Example 67, (2R)—N-hydroxy-4-(6-((1-(3-hydroxy-2-(hydroxymethyl)propyl)azetidin-3-yl)buta-1,3-diyn-1-yl)-3-oxo-1H-pyrrolo[1,2-c]imidazol-2(3H)-yl)-2-methyl-2-(methylsulfonyl)butanamide]
18 | 0.5 (≈ 1.15 µM) | 0.5 (≈ 1.15 µM) | 0.5 (≈ 1.15 µM) | [2H]CN1CC(C#CC#Cc2cc3n(c2)C(=O)N(CC[C@](C)(C(=O)NO)S(C)(=O)=O)C3)C1 [Example 60, (2R)—N-hydroxy-2-methyl-4-(6-((1-(methyl-d)azetidin-3-yl)buta-1,3-diyn-1-yl)-3-oxo-1H-pyrrolo[1,2-c]imidazol-2(3H)-yl)-2-(methylsulfonyl)butanamide]
19 | 2 (≈ 3.66 µM) | 0.5 (≈ 0.915 µM) | 0.5 (≈ 0.915 µM) | CN(CCO)C(=O)OCc1ccc(C#Cc2cc3n(c2)C(=O)N(CC[C@](C)(C(=O)NO)S(C)(=O)=O)C3)cc1 [Example 11, (3R)-4-((2-(4-(hydroxyamino)-3-methyl-3-(methylsulfonyl)-4-oxobutyl)-3-oxo-2,3-dihydro-1H-pyrrolo[1,2-c]imidazol-6-yl)ethynyl)benzyl (2-hydroxyethyl)(methyl)carbamate]
20 | 2 (≈ 3.98 µM) | 0.5 (≈ 0.995 µM) | 1 (≈ 1.99 µM) | CN1CC(C#Cc2ccc(-c3cc4n(c3)C(=O)N(CC[C@](C)(C(=O)NO)S(C)(=O)=O)C4)c(F)c2)C1 [Example 84, (2R)-4-(6-(2-fluoro-4-((1-methylazetidin-3-yl)ethynyl)phenyl)-3-oxo-1H-pyrrolo[1,2-c]imidazol-2(3H)-yl)-N-hydroxy-2-methyl-2-(methylsulfonyl)butanamide]
21 | 0.5 (≈ 1.16 µM) | 0.063 (≈ 0.146 µM) | 0.25 (≈ 0.578 µM) | CNC1(C#CC#Cc2cc3n(c2)C(=O)N(CC[C@](C)(C(=O)NO)S(C)(=O)=O)C3)CC1 [Example 38, (2R)—N-hydroxy-2-methyl-4-(6-((1-(methylamino)cyclopropyl)buta-1,3-diyn-1-yl)-3-oxo-1H-pyrrolo[1,2-c]imidazol-2(3H)-yl)-2-(methylsulfonyl)butanamide]
22 | 0.5 (≈ 1.15 µM) | 0.5 (≈ 1.15 µM) | 0.5 (≈ 1.15 µM) | [2H]C([2H])N1CC(C#CC#Cc2cc3n(c2)C(=O)N(CC[C@](C)(C(=O)NO)S(C)(=O)=O)C3)C1 [Example 52, (2R)—N-hydroxy-2-methyl-4-(6-((1-(methyl-d2)azetidin-3-yl)buta-1,3-diyn-1-yl)-3-oxo-1H-pyrrolo[1,2-c]imidazol-2(3H)-yl)-2-(methylsulfonyl)butanamide]
